Measurements published in article PMC7413254 (Nature Communications, 2020).
Where two headings read alike, the source gives them in different places.

Key:
PfCRT = assay: Potential co-substrates tested for influx of VF-6 via PfCRT into the oocyte; assay type: cell-based, Plasmodium falciparum; set-up: key: X: Compounds that have been tested as potential co-substrates but are not required for influx of VF-6 via PfCRT into the oocyte
PfCRT^Ecu1110 = PfCRT^Ecu1110 (Plasmodium falciparum, UniProt Q9N623, A220S/I356L/K76T/N326D); assay: [3H]CQ uptake into Xenopus oocytes, cis-inhibition by unlabelled solute; assay type: cell-based
Method in brief: (§1)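 Washed oocytes (ten per treatment) were exposed to label in pH 5.5 ND96 for 1.5 h at 27.5 °C. Buffer was then removed, cells rinsed in ice-cold ND96, lysed in SDS and counted.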

PfCRT^Dd2 = PfCRT^Dd2 (Plasmodium falciparum, UniProt Q9N623, A220S/I356T/K76T/M74I/N326S/N75E/Q271E/R371I); assay: as above; assay type: cell-based
Method in brief: as §1

non-expressing oocytes [1] = assay: cells; assay type: cell-based, Xenopus laevis; conditions: Xenopus laevis, total [3H]CQ transport; for inhibition at 500 µM: [test solute] = 0.5 mM; for inhibition at 1000 µM: [test solute] = 1 mM; for inhibition at 2000 µM: [test solute] = 2 mM
Method in brief: as §1

non-expressing oocytes [2] = assay type: cell-based, Xenopus laevis; conditions: non-expressing oocytes, total [3H]CQ transport, normalised to the oocyte type control
Method in brief: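 Oocytes (ten per treatment, ≥4 independent frogs/days) were preloaded by injecting VF-6 in 25 nL ND96 at pH 5.0, 5.5, 6.0 or 7.0, or Na^+-free choline buffer, then uptake run 1.5 h, 27.5 °C, ND96 pH 5.5 by default. Internal concentrations assumed ~400 nL oocyte volume.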

[3] = read-out: PfCRT-mediated [3H]CQ transport, cis-inhibition (% PfCRTEcu1110 control)
[4] = read-out: Uptake of [3H]CQ (% PfCRTDd2 control), cis-inhibition, PfCRTEcu1110, SEM
[5] = read-out: Uptake of [3H]CQ (% PfCRTEcu1110 control), cis-inhibition
[6] = read-out: [3H]CQ transport (% PfCRTEcu1110 control), cis-inhibition, PfCRTEcu1110, SEM
[7] = read-out: PfCRT-mediated [3H]CQ transport, cis-inhibition (% PfCRTDd2 control)
[8] = read-out: Uptake of [3H]CQ (% PfCRTDd2 control), cis-inhibition
[9] = read-out: Uptake of [3H]CQ (% PfCRTDd2 control), cis-inhibition, PfCRTDd2, SEM
[10] = read-out: [3H]CQ transport (% PfCRTDd2 control), cis-inhibition, PfCRTDd2, SEM
[11] = Oocyte, mean ± SEM, SEM, read-out: Uptake of [3H]CQ (% PfCRTDd2 control), cis-inhibition, non-expressing oocytes
[12] = non-expressing oocytes, normalised to the oocyte type control, read-out: Uptake of [3H]CQ (% non-expressing oocyte control), cis-inhibition

Sequence of PfCRT^Dd2 (Q9N623 whole entry A220S/I356T/K76T/M74I/N326S/N75E/Q271E/R371I): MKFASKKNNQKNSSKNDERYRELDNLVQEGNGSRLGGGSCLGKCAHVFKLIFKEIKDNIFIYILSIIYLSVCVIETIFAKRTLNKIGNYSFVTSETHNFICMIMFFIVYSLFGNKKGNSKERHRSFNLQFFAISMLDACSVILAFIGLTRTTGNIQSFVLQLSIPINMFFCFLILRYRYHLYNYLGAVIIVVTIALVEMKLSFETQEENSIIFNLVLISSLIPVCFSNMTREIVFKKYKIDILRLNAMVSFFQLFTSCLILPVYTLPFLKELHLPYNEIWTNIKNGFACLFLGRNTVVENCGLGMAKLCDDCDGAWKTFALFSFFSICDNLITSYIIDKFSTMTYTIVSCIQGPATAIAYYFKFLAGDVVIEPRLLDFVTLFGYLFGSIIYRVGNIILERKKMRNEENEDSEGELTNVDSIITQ
Sequence of PfCRT^Ecu1110 (Q9N623 whole entry A220S/I356L/K76T/N326D): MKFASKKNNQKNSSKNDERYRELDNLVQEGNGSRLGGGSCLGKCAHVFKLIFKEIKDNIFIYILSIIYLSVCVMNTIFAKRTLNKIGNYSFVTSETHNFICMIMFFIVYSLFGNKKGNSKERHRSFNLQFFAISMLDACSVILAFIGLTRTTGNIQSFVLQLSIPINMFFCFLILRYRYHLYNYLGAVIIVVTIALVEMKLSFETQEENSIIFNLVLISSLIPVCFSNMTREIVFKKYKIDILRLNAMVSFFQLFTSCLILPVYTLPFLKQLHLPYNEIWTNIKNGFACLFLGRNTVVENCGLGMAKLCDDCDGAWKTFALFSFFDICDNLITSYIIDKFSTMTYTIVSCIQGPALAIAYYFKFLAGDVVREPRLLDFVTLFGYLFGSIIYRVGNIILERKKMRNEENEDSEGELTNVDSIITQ

`N=C(N)NCCC[C@H](N)C(=O)O` [L-arginine] was tested, and the “Tested as potential co-substrate but not required for influx of VF-6 via PfCRT into the oocyte” value (PfCRT) was “X”, the inhibition at 500 µM (PfCRT^Ecu1110; [3]) was 98 ± 2.5% and the inhibition at 1000 µM (PfCRT^Ecu1110; [3]) was 95 ± 3.5%. It also gave an inhibition at 2000 µM (PfCRT^Ecu1110; [3]) of 99 ± 1.6%, an inhibition at 500 µM (PfCRT^Ecu1110; [4]) of 33 ± 2.4% and an inhibition at 1000 µM (PfCRT^Ecu1110; [4]) of 32 ± 1%. For the same molecule, the inhibition at 2000 µM (PfCRT^Ecu1110; [4]) was 33 ± 1.4%, the inhibition at 500 µM (PfCRT^Ecu1110; [5]) was 100 ± 4.3% and the inhibition at 1000 µM (PfCRT^Ecu1110; [5]) was 97 ± 6.2%. The inhibition at 2000 µM (PfCRT^Ecu1110; [5]) was 101 ± 3.6%, the inhibition at 500 µM (PfCRT^Ecu1110; [6]) was 30 ± 0.6% and the inhibition at 1000 µM (PfCRT^Ecu1110; [6]) was 29 ± 0.4%. The inhibition at 2000 µM (PfCRT^Ecu1110; [6]) was 30 ± 0.5%, the inhibition at 500 µM (PfCRT^Dd2; [7]) was 99 ± 3.2% and the inhibition at 1000 µM (PfCRT^Dd2; [7]) was 99 ± 2.6%. The inhibition at 2000 µM (PfCRT^Dd2; [7]) was 95 ± 2.4%, the inhibition at 500 µM (PfCRT^Dd2; [8]) was 101 ± 4.8% and the inhibition at 1000 µM (PfCRT^Dd2; [8]) was 101 ± 5.8%. For the same molecule, the inhibition at 500 µM (PfCRT^Dd2; [9]) was 101 ± 4.8%, the inhibition at 1000 µM (PfCRT^Dd2; [9]) was 101 ± 5.8% and the inhibition at 2000 µM (PfCRT^Dd2; [9]) was 98 ± 3.5%. The inhibition at 500 µM (PfCRT^Dd2; [10]) was 99 ± 3.2%, the inhibition at 1000 µM (PfCRT^Dd2; [10]) was 99 ± 2.6% and the inhibition at 500 µM (non-expressing oocytes [1]; [11]) was 2.5 ± 0.06%. For the same molecule, the inhibition at 1000 µM (non-expressing oocytes [1]; [11]) was 2.7 ± 0.06%, the inhibition at 2000 µM (non-expressing oocytes [1]; [11]) was 2.1 ± 0.1% and the inhibition at 500 µM (non-expressing oocytes [1]; [12]) was 99 ± 3.7%. For the same molecule, the inhibition at 1000 µM (non-expressing oocytes [1]; [12]) was 99 ± 2.6%, the inhibition at 2000 µM (non-expressing oocytes [1]; [12]) was 98 ± 5.2% and the “Uptake of [3H]CQ (% non-expressing oocyte control), trans-stimulation” value (non-expressing oocytes [2]; [test solute]i = 5 mM) was 97 ± 4.1 % non-expressing oocyte control. For the same molecule, the “Uptake of [3H]CQ (% non-expressing oocyte control), trans-stimulation” value (non-expressing oocytes [2]; [test solute]i = 45 mM (30 mM for some solutes due to solubility)) was 98 ± 3.9 % non-expressing oocyte control.
